Results from patent publication US8039501B2, “Synephrine derivatives useful as anti-inflammatory agents” (Universiteit Gent, priority 2005, dated 2011).
“And” between values parts separate entries of the source, which are not always exact repeats. Identical values can stand only once.

Tested on: B-CLL cells
Experiment: Annexin V/PI flow cytometric analysis of apoptosis in ex-vivo cultured B-CLL cells
Format: cell-based, human
Conditions: 24 hours
Method: Blood samples were obtained from B-CLL patients after informed consent according to institutional guidelines. CLL lymphocytes were isolated using Lymphoprep (Nycomed Pharma, Denmark) and re-suspended at a final concentration of 10−30×10^6 cells/ml in RPMI 1640 medium, supplemented with 10% heat-inactivated fetal bovine serum (FBS) (Greiner Bio-one, Wemmel, Belgium), 100 IU/ml penicillin, 100 μg/ml streptomycin, and 0.56 μg/mL fungizone (Gibco BRL, Merelbeke, Belgium). B-CLL cells were cultured in Dulbecco's Modified Eagle Medium (DMEM) (Gibco, Invitrogen Inc.) containing 10% FBS (Gibco, Invitrogen Inc.). For flow cytometric analysis of apoptosis, B-CLL cells were treated with the different compounds for 24 hours, 3×10^5 cells were removed from the culture medium, washed twice with cold PBS, and double stained with annexin V-fluorescein isothiocyanate (FITC) and propidium iodide (PI; Beckman Coulter, Miami, Fla.) in Annexin binding buffer, followed by analysis on a FC500PTM (Beckman Coulter, Nyon, Switzerland) flow cytometer. Flow cytometric data were analyzed using Cytomixs RXP software (Beckman Coulter, Nyon, Switzerland). To avoid non-specific fluorescence from dead cells, live cells were gated using forward and side scatter.
One of the early signs of apoptosis is the translocation of the membrane phospholipid phosphatidylserine from the cytoplasmic interface to the extracellular surface. Annexin V has a high affinity for the phospatidylserine-containing phospholipid bilayers. […] As the plasma membrane becomes increasingly permeable during the later stages of apoptosis, the DNA-binding dye PI can readily move across the cell membrane and bind to cellular DNA, providing a means to detect the loss of membrane integrity through mechanisms including necrosis. Three different cell populations can be observed in cells double-stained with AnnV-FITC and PI. […] Cells that stain with Ann V only are early apoptotic cells. And cells that stain with both AnnV and PI are late apoptotic/necrotic cells. The percentage of AnnV-positive B-CLL cells in the lymphocyte gate were measured by FACS and results were expressed as % apoptotic cells, i.e. sum of early apoptotic (AnnV+, PI−), and late apoptotic/dead cells (AnnV+, PI+). The percent of living cells was normalized to 100% living cells incubated in control medium with 0.1% EtOH. All measurements were made in duplicate and averaged.

## CNCC(Cl)c1ccc(OC(C)=O)cc1.Cl (stereo not drawn) [CpdA, 2-(4-acetoxyphenyl)-2-chloro-N-methyl-ethylammonium chloride]
10^−6M
  % apoptotic cells, CLL patient 1: 43%
  % apoptotic cells, CLL patient 2: 54%
10^−7M
  Apoptosis in cells from 2 different CLL patients: 40% and 55%
